Data reported in the supplement of paper PMC11451515.

System: NOMO1
Assay: cell viability relative to DMSO control; higher = less cytotoxic
Details: 48 h
Method in brief: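 Viability, reported as a per-plate percentage of DMSO wells with cell-free wells as background, came from CellTiter-Glo One luminescence. Reading took place after 48 h at 37°C. Before that, NOMO1 or SEM (500 cells/well) or P12-Ichikawa (1000 cells/well) leukemia cells, adapted for at least four passages in each medium, were seeded in 1536-well plates (5 μl) and pin-dosed with library compounds in DMSO, 47 μM to 0.79 nM over 11 threefold points.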

[1] = RPMI 5 mM glucose + 10% FBS, 0.000781 µM
[2] = RPMI 5 mM glucose + 10% FBS, 0.00234 µM
[3] = RPMI 5 mM glucose + 10% FBS, 0.00702 µM
[4] = RPMI 5 mM glucose + 10% FBS, 0.0211 µM
[5] = RPMI 5 mM glucose + 10% FBS, 0.0632 µM
[6] = RPMI 5 mM glucose + 10% FBS, 0.19 µM
[7] = RPMI 5 mM glucose + 10% FBS, 0.569 µM
[8] = RPMI 5 mM glucose + 10% FBS, 1.71 µM
[9] = RPMI 5 mM glucose + 10% FBS, 5.12 µM
[10] = RPMI 5 mM glucose + 10% FBS, 15.4 µM
[11] = RPMI 5 mM glucose + 10% FBS, 46.1 µM
[12] = RPMI 5 mM glucose + 10% dialyzed FBS, 0.000781 µM
[13] = RPMI 5 mM glucose + 10% dialyzed FBS, 0.00234 µM
[14] = RPMI 5 mM glucose + 10% dialyzed FBS, 0.00702 µM
[15] = RPMI 5 mM glucose + 10% dialyzed FBS, 0.0211 µM
[16] = RPMI 5 mM glucose + 10% dialyzed FBS, 0.0632 µM
[17] = RPMI 5 mM glucose + 10% dialyzed FBS, 0.19 µM
[18] = RPMI 5 mM glucose + 10% dialyzed FBS, 0.569 µM
[19] = RPMI 5 mM glucose + 10% dialyzed FBS, 1.71 µM
[20] = RPMI 5 mM glucose + 10% dialyzed FBS, 5.12 µM
[21] = RPMI 5 mM glucose + 10% dialyzed FBS, 15.4 µM
[22] = RPMI 5 mM glucose + 10% dialyzed FBS, 46.1 µM

| Structure (SMILES) | cell viability [1] | cell viability [2] | cell viability [3] | cell viability [4] | cell viability [5] | cell viability [6] | cell viability [7] | cell viability [8] | cell viability [9] | cell viability [10] | cell viability [11] | cell viability [12] | cell viability [13] | cell viability [14] | cell viability [15] | cell viability [16] | cell viability [17] | cell viability [18] | cell viability [19] | cell viability [20] | cell viability [21] | cell viability [22] |
| --- | --- | --- | --- | --- | --- | --- | --- | --- | --- | --- | --- | --- | --- | --- | --- | --- | --- | --- | --- | --- | --- | --- |
| CCN(CC)CC#CCOC(=O)C(O)(c1ccccc1)C1CCCCC1 (centres undefined) | 133% | 115% | 122% | 113% | 138% | 127% | 117% | 137% | 120% | 125% | 117% | 128% | 121% | 120% | 124% | 140% | 123% | 140% | 132% | 135% | 134% | 120% |
| NC[C@H]1CC[C@H](C(=O)O)CC1 | 112% | 133% | 105% | 109% | 119% | 128% | 110% | 110% | 116% | 121% | 120% |  |  |  |  |  |  |  |  |  |  |  |
| ClC1=C(N\C2=N\CCN2)C3=NSN=C3C=C1 | 108% | 119% | 120% | 123% | 112% | 118% | 119% | 135% | 117% | 125% | 144% | 107% | 127% | 114% | 132% | 133% | 128% | 140% | 143% | 161% | 153% | 140% |
| C[C@H](NC(=O)/C(C#N)=C/c1cccc(Br)n1)c1ccccc1 | 104% | 104% | 123% | 112% | 119% | 98.1% | 103% | 87.7% | 19% | 8.24% | 7.32% | 99.5% | 115% | 109% | 114% | 107% | 129% | 115% | 93.8% | 38.8% | 8.68% | 6.9% |
| CN(c1ncccc1CNc1nc(Nc2ccc3c(c2)CC(=O)N3)ncc1C(F)(F)F)[S+](C)(=O)[O-] | 112% | 113% | 115% | 105% | 116% | 116% | 99.3% | 103% | 97.7% | 93.9% | 18.7% | 104% | 107% | 116% | 106% | 117% | 117% | 124% | 104% | 114% | 86.5% | 20.6% |
